Results from ChEMBL document CHEMBL3621090, “Discovery of a novel Kv7 channel opener as a treatment for epilepsy” (Bioorg Med Chem Lett, 2015).

What was measured:
[1] = target: Voltage-gated potassium channel, KQT; KCNQ2(Kv7.2)/KCNQ3(Kv7.3) (Homo sapiens) (UniProt O43526+O43525); assay: (§1) Activation of human Kv7.2/7.3 expressed in CHOK1 cells; format: cell-based; conditions: CHO-K1; on max activation: test concentration or dose not given here
[2] = target: Voltage-gated potassium channel, KQT; KCNQ2(Kv7.2)/KCNQ3(Kv7.3) (Homo sapiens, UniProt O43525+O43526); assay: as §1; format: cell-based, CHO-K1
[3] = Intrinsic clearance in human liver microsomes measured over 1 hr in presence of NADPH regenerating system; format: ADME; conditions: read-out: CLH
[4] = Permeability in dog RRCK cells after 2 hrs by transwell assay; format: ADME, cell-based, Canis lupus familiaris, MDCKII-LE; conditions: mdck, read-out: permeability
[5] = system: MDCK; assay: Efflux ratio of permeability from basolateral to apical over apical to basolateral side in MDCK cells transfected with MDR1; format: ADME, cell-based, Canis lupus familiaris; conditions: dog
[6] = Toxicity in human THLE cells assessed as ATP depletion; format: cell-based
[7] = system: Liver microsome; assay: Stability in human liver microsomes in absence of NADPH; format: ADME

Chain of Voltage-gated potassium channel, KQT; KCNQ2(Kv7.2)/KCNQ3(Kv7.3) (O43526 whole entry): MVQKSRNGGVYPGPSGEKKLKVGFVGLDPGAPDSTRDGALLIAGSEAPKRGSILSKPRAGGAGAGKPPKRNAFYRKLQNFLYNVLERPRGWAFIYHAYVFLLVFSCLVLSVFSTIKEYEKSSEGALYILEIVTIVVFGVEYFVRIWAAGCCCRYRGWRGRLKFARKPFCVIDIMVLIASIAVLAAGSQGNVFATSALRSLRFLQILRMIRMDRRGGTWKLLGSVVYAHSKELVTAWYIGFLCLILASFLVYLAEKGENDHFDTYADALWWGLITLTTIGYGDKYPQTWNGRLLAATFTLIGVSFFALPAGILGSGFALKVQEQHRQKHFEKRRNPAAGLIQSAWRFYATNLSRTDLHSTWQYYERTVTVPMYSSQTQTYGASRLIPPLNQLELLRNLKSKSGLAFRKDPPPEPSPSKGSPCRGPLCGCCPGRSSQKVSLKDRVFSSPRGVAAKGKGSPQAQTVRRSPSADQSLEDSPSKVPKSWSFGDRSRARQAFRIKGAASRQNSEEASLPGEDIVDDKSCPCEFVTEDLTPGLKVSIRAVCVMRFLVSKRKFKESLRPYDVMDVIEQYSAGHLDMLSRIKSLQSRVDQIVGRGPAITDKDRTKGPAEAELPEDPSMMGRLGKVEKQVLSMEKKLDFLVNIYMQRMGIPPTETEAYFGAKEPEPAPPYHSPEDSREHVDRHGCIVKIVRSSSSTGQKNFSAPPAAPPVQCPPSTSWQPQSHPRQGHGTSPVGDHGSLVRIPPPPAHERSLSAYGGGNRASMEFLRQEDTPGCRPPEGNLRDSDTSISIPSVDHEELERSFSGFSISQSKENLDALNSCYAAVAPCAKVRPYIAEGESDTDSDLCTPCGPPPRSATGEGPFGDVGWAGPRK
Chain of Voltage-gated potassium channel, KQT; KCNQ2(Kv7.2)/KCNQ3(Kv7.3) (O43525 whole entry): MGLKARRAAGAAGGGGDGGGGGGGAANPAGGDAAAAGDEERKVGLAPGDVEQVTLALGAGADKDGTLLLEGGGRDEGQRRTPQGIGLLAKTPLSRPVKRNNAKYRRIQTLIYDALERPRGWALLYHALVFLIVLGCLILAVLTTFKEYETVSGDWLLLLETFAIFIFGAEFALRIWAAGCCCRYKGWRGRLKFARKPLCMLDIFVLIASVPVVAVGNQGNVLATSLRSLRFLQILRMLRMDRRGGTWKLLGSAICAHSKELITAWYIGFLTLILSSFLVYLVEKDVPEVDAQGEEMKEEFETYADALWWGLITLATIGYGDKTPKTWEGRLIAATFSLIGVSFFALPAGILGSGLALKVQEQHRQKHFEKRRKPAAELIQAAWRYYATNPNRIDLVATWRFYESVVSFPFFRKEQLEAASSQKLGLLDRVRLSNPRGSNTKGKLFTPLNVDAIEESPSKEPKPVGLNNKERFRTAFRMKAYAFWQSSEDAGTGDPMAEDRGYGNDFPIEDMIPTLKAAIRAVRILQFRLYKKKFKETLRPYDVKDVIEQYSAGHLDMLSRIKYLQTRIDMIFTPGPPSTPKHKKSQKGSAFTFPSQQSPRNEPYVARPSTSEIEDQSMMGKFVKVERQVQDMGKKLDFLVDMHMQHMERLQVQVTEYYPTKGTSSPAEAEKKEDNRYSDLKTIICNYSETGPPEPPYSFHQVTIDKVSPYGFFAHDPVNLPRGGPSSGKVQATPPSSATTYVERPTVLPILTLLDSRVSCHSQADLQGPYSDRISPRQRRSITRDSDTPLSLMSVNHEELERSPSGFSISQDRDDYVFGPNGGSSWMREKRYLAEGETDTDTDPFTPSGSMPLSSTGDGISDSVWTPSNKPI

Structure (SMILES)	max activation [1] [%]	EC50 [2] [nM]	CLint scaled [3] [mL/min/kg]	Papp at 2 h [4] [×10⁻⁶ cm/s]	Ratio [5]	IC50 [6] [nM]	Stability [7]
COc1nc(N2CCC(OC)CC2)nc(OC)c1NC(=O)CC1CCCC1	143	343					
COc1nc(N2CCC(OC(C)C)CC2)nc(OC)c1NC(=O)CC(C)(C)C	145	358					
COc1nc(N2CC(F)(F)C2)nc(OC)c1NC(=O)CC(C)(C)C	103	110	18.9	28	1.29	> 300000	
COc1nc(N2CCCOCC2)nc(OC)c1NC(=O)CC(C)(C)C	85	62	24.4	20.2	1.25	> 300000	
COc1nc(N2CCOCC2)nc(OC)c1NC(=O)CC(C)(C)C	95	164	< 10.4	25.9	1.11	> 300000	
COc1nc(N2CCC(F)(F)CC2)nc(OC)c1NC(=O)CC(C)(C)C	99	50	21.6		1.29	> 300000	
CCOC(=O)Nc1ccc(NCc2ccc(F)cc2)cc1N [EZOGABINE]			< 8	34.2	1.13	213000	
COc1nc(N2CCCCC2)nc(OC)c1NC(=O)CC(C)(C)C	182	64	43.7	22.3	1.59	> 300000	
COc1nc(N2CCC(OC)CC2)nc(OC)c1NC(=O)CCC(C)C	132	304					
COc1nc(N2CCC(OC)CC2)nc(OC)c1NC(=O)CC1CCCCC1	152	162					
COc1nc(N2CC(OC)C2)nc(OC)c1NC(=O)CC(C)(C)C	103	961					
COc1nc(N2CCC(OC)CC2)nc(OC)c1NC(=O)CCC1CCCC1	126	40		15.2	1.21	80500	Unstable
COc1nc(N2C[C@@H]3C[C@H]2CO3)nc(OC)c1NC(=O)CC(C)(C)C	101	1890					
COc1nc(N2CC3(COC3)C2)nc(OC)c1NC(=O)CC(C)(C)C	106	9190					
COCCN(C)c1nc(OC)c(NC(=O)CC(C)(C)C)c(OC)n1	166	206	21		1.11	> 300000	
COc1nc(N2CCSCC2)nc(OC)c1NC(=O)CC(C)(C)C	92	24	69.6				
COc1nc(N2CCC(OC)CC2)nc(OC)c1NC(=O)CC(C)C	138	630					
